# Measured values published in US20080171783A1, “COMPOSITIONS AND METHODS FOR TREATING HYPERPROLIFERATIVE DISEASE” (Migenix Inc., priority 2006, published 2008).
# Experiments:
# human polymerase gamma = target: T1, human polymerase gamma (Homo sapiens, UniProt P54098); test: Homotemplate enzymatic assay, polymerase gamma; format: biochemical; settings: four concentrations, homotemplate format
# T1 construct: purchased Replizyme Ltd., Heslington, York, UK
# T1 sequence (P54098 1-1239): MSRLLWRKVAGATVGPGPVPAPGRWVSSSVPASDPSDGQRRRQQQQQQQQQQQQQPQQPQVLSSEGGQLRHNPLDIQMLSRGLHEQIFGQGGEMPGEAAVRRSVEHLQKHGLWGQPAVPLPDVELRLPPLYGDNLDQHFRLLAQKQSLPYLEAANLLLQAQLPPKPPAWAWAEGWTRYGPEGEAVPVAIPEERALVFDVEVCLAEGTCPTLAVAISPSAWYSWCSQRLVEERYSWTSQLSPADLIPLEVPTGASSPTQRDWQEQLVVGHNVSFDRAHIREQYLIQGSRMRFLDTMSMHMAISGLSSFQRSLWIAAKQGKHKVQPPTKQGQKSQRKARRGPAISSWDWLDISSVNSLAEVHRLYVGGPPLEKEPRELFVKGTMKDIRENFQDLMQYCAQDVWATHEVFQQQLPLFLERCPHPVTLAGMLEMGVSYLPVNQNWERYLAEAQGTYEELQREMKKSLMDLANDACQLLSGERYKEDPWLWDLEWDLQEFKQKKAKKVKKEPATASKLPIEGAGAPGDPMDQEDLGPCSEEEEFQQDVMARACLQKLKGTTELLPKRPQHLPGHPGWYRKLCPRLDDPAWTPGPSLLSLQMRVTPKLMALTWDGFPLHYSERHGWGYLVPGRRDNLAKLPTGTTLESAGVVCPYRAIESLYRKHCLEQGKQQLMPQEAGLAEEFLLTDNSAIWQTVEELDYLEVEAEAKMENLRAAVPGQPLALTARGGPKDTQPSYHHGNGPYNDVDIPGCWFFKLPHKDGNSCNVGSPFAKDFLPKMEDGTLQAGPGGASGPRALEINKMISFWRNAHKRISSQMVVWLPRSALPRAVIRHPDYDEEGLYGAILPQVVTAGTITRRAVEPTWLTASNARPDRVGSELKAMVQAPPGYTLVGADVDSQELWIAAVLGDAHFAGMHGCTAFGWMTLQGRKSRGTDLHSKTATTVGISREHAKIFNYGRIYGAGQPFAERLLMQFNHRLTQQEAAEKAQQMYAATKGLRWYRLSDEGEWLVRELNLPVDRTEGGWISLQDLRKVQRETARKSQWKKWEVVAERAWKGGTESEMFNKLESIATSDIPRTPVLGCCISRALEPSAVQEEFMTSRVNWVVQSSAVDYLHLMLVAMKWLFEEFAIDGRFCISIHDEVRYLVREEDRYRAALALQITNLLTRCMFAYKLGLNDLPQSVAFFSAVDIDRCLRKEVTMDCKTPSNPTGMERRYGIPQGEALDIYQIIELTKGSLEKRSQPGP
# Protocol: To test for selectivity, an enzymatic assay of activity in human polymerase alpha and human polymerase gamma was performed using a homotemplate assay format (Replizyme Ltd., Heslington, York, UK). The IC50 was measured by testing four different concentrations of a selected compound as compared to an untreated control.
# Calf polymerase alpha = target: T2, Calf polymerase alpha (Bos taurus, UniProt A0AAA9TD94); test: Calf polymerase alpha inhibition (Replizyme kit); format: biochemical; settings: for IC50: dose response; for inhibition at 10 µM: single point screening
# T2 construct: purchased Replizyme Ltd (Heslington, York, UK)
# T2 sequence (A0AAA9TD94 1-1441): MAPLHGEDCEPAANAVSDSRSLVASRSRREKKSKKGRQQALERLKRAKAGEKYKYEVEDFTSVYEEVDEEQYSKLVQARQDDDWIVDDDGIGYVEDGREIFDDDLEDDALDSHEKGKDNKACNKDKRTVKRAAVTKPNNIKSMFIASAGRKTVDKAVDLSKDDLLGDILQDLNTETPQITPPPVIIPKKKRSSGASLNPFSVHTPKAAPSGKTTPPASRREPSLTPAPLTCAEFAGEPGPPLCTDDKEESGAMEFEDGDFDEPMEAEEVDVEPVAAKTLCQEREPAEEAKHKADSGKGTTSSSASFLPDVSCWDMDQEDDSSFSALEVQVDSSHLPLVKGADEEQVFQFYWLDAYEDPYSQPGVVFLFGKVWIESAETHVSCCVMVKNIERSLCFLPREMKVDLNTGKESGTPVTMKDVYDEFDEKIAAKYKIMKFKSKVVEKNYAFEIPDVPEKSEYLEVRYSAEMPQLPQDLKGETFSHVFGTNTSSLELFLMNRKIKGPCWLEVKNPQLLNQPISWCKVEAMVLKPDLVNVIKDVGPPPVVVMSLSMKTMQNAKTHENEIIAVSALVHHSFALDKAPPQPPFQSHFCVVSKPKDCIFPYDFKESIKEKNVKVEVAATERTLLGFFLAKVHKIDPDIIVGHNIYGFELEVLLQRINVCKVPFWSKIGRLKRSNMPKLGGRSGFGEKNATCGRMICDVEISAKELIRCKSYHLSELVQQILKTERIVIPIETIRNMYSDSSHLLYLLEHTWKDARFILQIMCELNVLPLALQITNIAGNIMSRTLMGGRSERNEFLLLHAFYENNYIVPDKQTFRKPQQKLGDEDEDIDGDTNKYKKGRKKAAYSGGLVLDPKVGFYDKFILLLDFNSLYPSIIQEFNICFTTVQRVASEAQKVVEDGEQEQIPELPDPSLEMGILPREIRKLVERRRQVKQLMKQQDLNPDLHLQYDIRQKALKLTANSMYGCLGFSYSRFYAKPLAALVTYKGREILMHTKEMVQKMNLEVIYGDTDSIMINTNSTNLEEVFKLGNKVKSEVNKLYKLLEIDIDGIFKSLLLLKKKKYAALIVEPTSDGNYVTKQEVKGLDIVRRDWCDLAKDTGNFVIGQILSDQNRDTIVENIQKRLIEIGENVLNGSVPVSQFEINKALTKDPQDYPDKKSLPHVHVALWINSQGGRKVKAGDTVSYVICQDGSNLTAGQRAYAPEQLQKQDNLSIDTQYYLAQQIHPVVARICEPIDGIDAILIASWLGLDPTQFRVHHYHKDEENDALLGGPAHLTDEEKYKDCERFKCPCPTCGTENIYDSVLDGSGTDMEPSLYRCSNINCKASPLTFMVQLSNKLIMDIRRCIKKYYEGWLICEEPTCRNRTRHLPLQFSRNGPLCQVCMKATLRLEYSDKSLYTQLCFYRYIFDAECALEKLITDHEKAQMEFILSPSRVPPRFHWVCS
# Protocol: Calf polymerase alpha and human polymerase alpha investigations were performed with a kit available from Replizyme Ltd (Heslington, York, UK).
IC50 (human polymerase gamma),SMILES,IC50 (Calf polymerase alpha),inhibition at 10 µM (Calf polymerase alpha)
32 µM,"COC(=O)c1ccc(COc2ccc(NC(=O)N[C@@H](CCCCN)C(=O)Nc3ccc(C)cc3)cc2)cc1 [Compound 199, (S)-4-{4-[3-(5-AMINO-1-P-TOLYLCARBAMOYL-PENTYL)-UREIDO]-PHENOXYMETHYL}-BENZOIC ACID METHYL ESTER]",7.9 µM,39.7%
13 µM,"Cc1cc2cc(NC(=O)[C@H](CCCNC(=O)CN)NC(=O)Nc3ccc4c(c3)Cc3ccccc3-4)ccc2[nH]1 [Compound 297, (S)-5-(2-AMINO-ACETYLAMINO)-2-[3-(9H-FLUOREN-2-YL)-UREIDO]-PENTANOIC ACID (2-METHYL-1H-INDOL-5-YL)-AMIDE]",26 µM,16.5%

# Further lines, the molecule ahead of its results:
SMILES,IC50 (human polymerase gamma),IC50 (Calf polymerase alpha),inhibition at 10 µM (Calf polymerase alpha)
"Cc1ccc(NC(=O)[C@H](CCCCN)NC(=O)Nc2ccc(OCc3ccccc3)cc2)cc1 [Compound 2, (S)-6-AMINO-2-[3-(4-BENZYLOXY-PHENYL)-UREIDO]-HEXANOIC ACID P-TOLYLAMIDE]",27 µM,13 µM,–
"CC(C)(C)c1ccc(NC(=O)[C@H](CCCCN)NC(=O)OCC2c3ccccc3-c3ccccc32)cc1 [Compound 105, (S)-[5-AMINO-1-(4-TERT-BUTYL-PHENYLCARBAMOYL)-PENTYL]-CARBAMIC ACID 9H-FLUOREN-9-YLMETHYL ESTER]",–,–,100%
"Cc1ccc(NC(=O)[C@@H](CCCCN)NC(=O)Nc2ccc3c(c2)Cc2ccccc2-3)cc1 [Compound 173, (R)-6-AMINO-2-[3-(9H-FLUOREN-2-YL)-UREIDO]-HEXANOIC ACID P-TOLYLAMIDE]",16 µM,–,99%
